Molecular target: human plasma kallikrein (Homo sapiens (Human), UniProt P03952)
Test: Plasma Kallikrein Activity Assay (chromogenic substrate S2302)
Format: biochemical
Conditions: 2 nM kallikrein, 80 μM S2302, 30° C., pH 7.8; Cheng-Prusoff
Summary of the method: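 2 nM human plasma kallikrein incubated at 30° C with 80 μM S2302 and increasing compound concentrations in 50 mM Tris-HCl pH 7.8, 200 mM NaCl, 2.5 mM CaCl2. Activity read as absorbance change at 405 nm; four-parameter logistic fit, Ki by Cheng-Prusoff.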

Chain of human plasma kallikrein (P03952 391-638): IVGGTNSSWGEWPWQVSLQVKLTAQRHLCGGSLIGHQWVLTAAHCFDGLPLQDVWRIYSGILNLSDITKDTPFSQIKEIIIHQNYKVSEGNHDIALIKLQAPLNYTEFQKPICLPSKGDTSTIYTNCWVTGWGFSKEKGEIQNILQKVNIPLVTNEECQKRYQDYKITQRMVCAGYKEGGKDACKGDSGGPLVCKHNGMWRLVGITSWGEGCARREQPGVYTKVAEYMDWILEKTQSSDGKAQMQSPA
Chain of human plasma kallikrein (P03952 20-390 partner): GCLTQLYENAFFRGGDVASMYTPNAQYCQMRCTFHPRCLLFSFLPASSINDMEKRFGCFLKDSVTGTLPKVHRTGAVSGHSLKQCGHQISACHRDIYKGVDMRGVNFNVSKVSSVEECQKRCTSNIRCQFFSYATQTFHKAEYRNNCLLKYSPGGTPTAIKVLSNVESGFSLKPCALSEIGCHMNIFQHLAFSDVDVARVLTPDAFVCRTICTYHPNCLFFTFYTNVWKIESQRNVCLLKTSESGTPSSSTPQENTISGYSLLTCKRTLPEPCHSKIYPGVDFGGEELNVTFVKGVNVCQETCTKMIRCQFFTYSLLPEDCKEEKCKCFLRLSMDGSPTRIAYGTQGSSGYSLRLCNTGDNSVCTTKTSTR

Molecule `NC(CCC1CC1)(c1ccncc1)c1ccc(F)c(NC(=O)[C@H]2C[C@H]3C[C@H]3N2)c1` (stereo partly drawn) [Compound 80c, (1R,3R,5R)-N-(5-((+)-1-amino-3-cyclopropyl-1-(pyridin-4-yl)propyl)-2-fluorophenyl)-2-azabicyclo[3.1.0]hexane-3-carboxamide] has a Ki of 50 to 100 nM.

Molecule `CCO[C@@H]1C[C@H](C(=O)Nc2cc(C(N)(CCC3CC3)c3ccncc3)ccc2F)N(C(=O)Nc2ccc(Cl)cn2)C1` (stereo partly drawn) [Compound 51b, (2R,4R)-N2-(5-((+)-1-amino-3-cyclopropyl-1-(pyridin-4-yl)propyl)-2-fluorophenyl)-N1-(5-chloropyridin-2-yl)-4-ethoxypyrrolidine-1,2-dicarboxamide] has a Ki of less than 50 nM.

With `CO[C@@H]1C[C@H](C(=O)Nc2cc(C(N)(CCC3CC3)c3ccccn3)ccc2F)N(C(=O)Nc2ccc(Cl)cc2)C1` (stereo partly drawn) [Compound 65b, (2R,4R)-N2-(5-((+)-1-amino-3-cyclopropyl-1-(pyridin-2-yl)propyl)-2-fluorophenyl)-N1-(4-chlorophenyl)-4-methoxypyrrolidine-1,2-dicarboxamide] the Ki was less than 50 nM.

With `CO[C@@H]1C[C@H](C(=O)Nc2cc(C(N)(CCC3CC3)c3ccncc3)ccc2F)N(C(=O)Nc2ccc(Cl)s2)C1` (stereo partly drawn) [Compound 81h, (2R,4R)-N2-(5-((−)-1-amino-3-cyclopropyl-1-(pyridin-4-yl)propyl)-2-fluorophenyl)-N1-(5-chlorothiophen-2-yl)-4-methoxypyrrolidine-1,2-dicarboxamide] the Ki was less than 50 nM.

`CC(C)(C)[S@@+]([O-])NC(CCC1CC1)(c1cccc(C#N)c1)c1ccc(F)c(NC(=O)[C@H]2C[C@H](N=[N+]=[N-])CN2C(=O)Nc2ccc(Cl)cc2)c1` (stereo partly drawn) [Compound 33b, (2R,4S)-4-azido-N1-(4-chlorophenyl)-N2-(5-((+)-1-(3-cyanophenyl)-3-cyclopropyl-1-((R)-1,1-dimethylethylsulfinamido)propyl)-2-fluorophenyl)pyrrolidine-1,2-dicarboxamide] showed a Ki greater than 100 nM.

Work on `CO[C@H]1C[C@@H](C(=O)Nc2cc(C(N)(CCC3CC3)c3cccc(C#N)c3)ccc2F)N(C(=O)Nc2ccc(Cl)cc2)C1` (stereo partly drawn) [Compound 11e, (2S,4S)-N2-(5-((−)-1-amino-1-(3-cyanophenyl)-3-cyclopropylpropyl)-2-fluorophenyl)-N1-(4-chlorophenyl)-4-methoxypyrrolidine-1,2-dicarboxamide] yielded a Ki greater than 100 nM.

In the case of `N#Cc1cccc(C(N)(CCC2CC2)c2ccc(F)c(NC(=O)[C@H]3C[C@@H](O)CN3C(=O)Nc3cccc4ccccc34)c2)c1` (stereo partly drawn) [Compound 26b, (2R,4R)-N2-(5-((+)-1-amino-1-(3-cyanophenyl)-3-cyclopropylpropyl)-2-fluorophenyl)-4-hydroxy-N1-(naphthalen-1-yl)pyrrolidine-1,2-dicarboxamide], the Ki is reported as greater than 100 nM.

`N#Cc1cccc(C(N)(CCC2CC2)c2ccc(F)c(NC(=O)[C@@H]3C[C@H](O)CN3C(=O)Nc3ccc(Cl)cc3)c2)c1` (stereo partly drawn) [Compound 10c, (2S,4S)-N2-(5-((−)-1-amino-1-(3-cyanophenyl)-3-cyclopropylpropyl)-2-fluorophenyl)-N1-(4-chlorophenyl)-4-hydroxypyrrolidine-1,2-dicarboxamide] was tested, and the Ki was greater than 100 nM.

`NC(CCC1CC1)(c1ccncc1)c1ccc(F)c(NC(=O)[C@H]2C[C@H](c3ccccc3)CN2C(=O)Nc2ccc(Cl)cn2)c1` (stereo partly drawn) [Compound 47d, (2R,4R)-N2-(5-((+)-1-amino-3-cyclopropyl-1-(pyridin-4-yl)propyl)-2-fluorophenyl)-N1-(5-chloropyridin-2-yl)-4-phenylpyrrolidine-1,2-dicarboxamide] showed a Ki of 50 to 100 nM.

`CO[C@]1(c2ccccc2)C[C@H](C(=O)Nc2cc(C(CCC3CC3)(N[S@@+]([O-])C(C)(C)C)c3ccccn3)ccc2F)N(C(=O)OC(C)(C)C)C1` (stereo partly drawn) [Compound 34b, (2R,4S)-tert-butyl-2-(5-((+)-3-cyclopropyl-1-((S)-1,1-dimethylethylsulfinamido)-1-(pyridin-2-yl)propyl)-2-fluorophenylcarbamoyl)-4-methoxy-4-phenylpyrrolidine-1-carboxylate] was tested, and the Ki was greater than 100 nM.

In the case of `CO[C@@H]1C[C@H](C(=O)Nc2cc(C(N)(CCC3CC3)c3ccncc3)ccc2F)N(C(=O)c2cccc(C#N)c2)C1` (stereo partly drawn) [Compound 86a, (2R,4R)-N-(5-((+)-1-amino-3-cyclopropyl-1-(pyridin-4-yl)propyl)-2-fluorophenyl)-1-(3-cyanobenzoyl)-4-methoxypyrrolidine-2-carboxamide], the Ki is reported as greater than 100 nM.

`N#Cc1ccc(C(N)(CCC2CC2)c2ccc(F)c(NC(=O)[C@H]3C[C@@H](O)CN3C(=O)Nc3ccc(Cl)cc3)c2)cc1` (stereo partly drawn) [Compound 63g, (2R,4R)-N2-(5-((+)-1-amino-1-(4-cyanophenyl)-3-cyclopropylpropyl)-2-fluorophenyl)-N1-(4-chlorophenyl)-4-hydroxypyrrolidine-1,2-dicarboxamide] gave a Ki of 50 to 100 nM.

In the case of `CO[C@@H]1C[C@H](C(=O)Nc2cc(C(N)(CCC3CC3)c3ccncc3)ccc2F)N(C(=O)Cc2ccc(Cl)cc2)C1` (stereo partly drawn) [Compound 76e, (2R,4R)-N-(5-((+)-1-amino-3-cyclopropyl-1-(pyridin-4-yl)propyl)-2-fluorophenyl)-1-(2-(4-chlorophenyl)acetyl)-4-methoxypyrrolidine-2-carboxamide], the Ki is reported as greater than 100 nM.

`N#Cc1cccc(C(N)(CCC2CC2)c2ccc(F)c(NC(=O)[C@H]3C[C@@H](N)CN3C(=O)Nc3ccc(Cl)cc3)c2)c1` (stereo partly drawn) [Compound 19c, (2R,4R)-4-amino-N2-(5-((+)-1-amino-1-(3-cyanophenyl)-3-cyclopropylpropyl)-2-fluorophenyl)-N1-(4-chlorophenyl)pyrrolidine-1,2-dicarboxamide] was tested, and the Ki was greater than 100 nM.

`O=C(Nc1cc(C(NCC2CC2)c2ccccc2)ccc1F)[C@H]1C[C@@H](O)CN1C(=O)Nc1ccc(Cl)cc1` (stereo partly drawn) [Compound 3a, (2R,4R)-N1-(4-chlorophenyl)-N2-(5-((+)-(cyclopropylmethylamino)(phenyl)methyl)-2-fluorophenyl)-4-hydroxypyrrolidine-1,2-dicarboxamide] gave a Ki of 50 to 100 nM.

Work on `CC(C)(C)[S@@+]([O-])NC(CCC1CC1)(c1cccc(C#N)c1)c1ccc(F)c(NC(=O)[C@H]2CCCN2C(=O)Nc2ccc(Cl)cc2)c1` (stereo partly drawn) [Compound 7b, (R)-N1-(4-chlorophenyl)-N2-(5-((+)-1-(3-cyanophenyl)-3-cyclopropyl-1-((R)-1,1-dimethylethylsulfinamido)propyl)-2-fluorophenyl)pyrrolidine-1,2-dicarboxamide] yielded a Ki greater than 100 nM.

Molecule `N#Cc1cccc(C(N)(CCC2CC2)c2ccc(F)c(NC(=O)[C@@H]3C[C@@H](O)CN3C(=O)Nc3ccc(Cl)cc3)c2)c1` (stereo partly drawn) [Compound 5e, (2S,4R)-N2-(5-((−)-1-amino-1-(3-cyanophenyl)-3-cyclopropylpropyl)-2-fluorophenyl)-N1-(4-chlorophenyl)-4-hydroxypyrrolidine-1,2-dicarboxamide] has a Ki greater than 100 nM.

`N#Cc1cccc(C(N)(CCC2CC2)c2ccc(F)c(NC(=O)[C@H]3C[C@@H](O)CN3C(=O)Nc3ccc(Cl)cc3)c2)c1` (stereo partly drawn) [Compound 4g, (2R,4R)-N2-(5-((+)-1-amino-1-(3-cyanophenyl)-3-cyclopropylpropyl)-2-fluorophenyl)-N1-(4-chlorophenyl)-4-hydroxypyrrolidine-1,2-dicarboxamide] was tested, and the Ki was 50 to 100 nM.

In the case of `CO[C@@H]1C[C@H](C(=O)Nc2cc(C(N)(CCC3CC3)c3ccncc3)ccc2F)N(C(=O)Nc2ccc(Cl)cn2)C1` (stereo partly drawn) [Compound 70c, (2R,4R)-N2-(5-((+)-1-amino-3-cyclopropyl-1-(pyridin-4-yl)propyl)-2-fluorophenyl)-N1-(5-chloropyridin-2-yl)-4-methoxypyrrolidine-1,2-dicarboxamide], the Ki is reported as less than 50 nM.

In the case of `CO[C@@H]1C[C@H](C(=O)Nc2cc(C(CCC3CC3)(N[S@+]([O-])C(C)(C)C)c3cccc(C#N)c3)ccc2F)N(C(=O)Nc2ccc(Cl)cn2)C1` (stereo partly shown) [Compound 18a], the Ki is reported as less than 50 nM.

For `N#Cc1cccc(C(N)(CCC2CC2)c2ccc(F)c(NC(=O)[C@H]3C[C@@H](O)CN3C(=O)Nc3ccccc3)c2)c1` (stereo partly drawn) [Compound 21d, (2R,4R)-N2-(5-((+)-1-amino-1-(3-cyanophenyl)-3-cyclopropylpropyl)-2-fluorophenyl)-4-hydroxy-N1-phenylpyrrolidine-1,2-dicarboxamide], the Ki was greater than 100 nM.

Molecule `CC(C)(C)[S@@+]([O-])NC(CCC1CC1)(c1cccc(C#N)c1)c1ccc(F)c(NC(=O)[C@@H]2C[C@@H](O)CN2C(=O)Nc2ccc(Cl)cc2)c1` (stereo partly drawn) [Compound 5d, (2S,4R)-N1-(4-chlorophenyl)-N2-(5-((−)-1-(3-cyanophenyl)-3-cyclopropyl-1-((R)-1,1-dimethylethylsulfinamido)propyl)-2-fluorophenyl)-4-hydroxypyrrolidine-1,2-dicarboxamide] has a Ki greater than 100 nM.

`CO[C@@H]1C[C@@H](C(=O)Nc2cc(C(N)(CCC3CC3)c3cccc(C#N)c3)ccc2F)N(C(=O)N(C)c2ccc(Cl)cc2)C1` (stereo partly drawn) [Compound 6f, (2S,4R)-N2-(5-((+)-1-amino-1-(3-cyanophenyl)-3-cyclopropylpropyl)-2-fluorophenyl)-N1-(4-chlorophenyl)-4-methoxy-N1-methylpyrrolidine-1,2-dicarboxamide] gave a Ki greater than 100 nM.

With `CCO[C@@H]1C[C@H](C(=O)Nc2cc(C(NCC3CC3)c3cccc(C#N)c3)ccc2F)N(C(=O)Nc2ccc(Cl)cn2)C1` (stereo partly drawn) [Compound 58j, (2R,4R)-N1-(5-chloropyridin-2-yl)-N2-(5-((+)-(3-cyanophenyl)(cyclopropylmethylamino)methyl)-2-fluorophenyl)-4-ethoxypyrrolidine-1,2-dicarboxamide] the Ki was less than 50 nM.

For `CO[C@@H]1C[C@H](C(=O)Nc2cc([C@](CCC3CC3)(N[S@+]([O-])C(C)(C)C)c3ccncc3)ccc2F)N(S(=O)(=O)c2ccc3cc(Cl)ccc3c2)C1` [Compound 87b, (2R,4R)-1-(6-chloronaphthalen-2-ylsulfonyl)-N-(5-((S)-3-cyclopropyl-1-((R)-1,1-dimethylethylsulfinamido)-1-(pyridin-4-yl)propyl)-2-fluorophenyl)-4-methoxypyrrolidine-2-carboxamide], the Ki was greater than 100 nM.

From patent publication US10562850B2, “Human plasma kallikrein inhibitors” (priority 2015, dated 2020)
